# Tests used:
# [1] = maximum amount of L-lysine capable of being dissolved in water; type: physicochemical; details: water @ 20 °C
# Protocol: Various different concentrations of L-lysine may be used in the mixture. In one embodiment, L-lysine is initially dissolved in water at a concentration of 500 mg/ml. The L-lysine/water solution is then mixed with the palatable base substance at a 1:1 ratio (i.e., 50% solution and 50% palatable base), resulting in an L-lysine concentration of 250 mg/ml. Given that the current recommended dosage of L-lysine is 250 to 1000 mg daily, two 2 ml doses may be administered daily. Alternatively, a single 4 ml dose may be administered (if the cat is willing to consume the 4 ml dose). It should be noted, however, that the underlying principles of the invention are not confined to any particular concentration of L-lysine or any particular dosage. For example, any concentration up to the maximum amount capable of being dissolved in water may be used (e.g., 64.2 gm/100 ml water @ 20 °C, or approximately 650 mg/ml). Moreover, the L-lysine solution may then be added to the palatable base at various different ratios, based on the desired L-lysine concentration and/or the desired consistency of the final mixture (e.g., 2:1, 3:1, 1:2, . . . etc).
# [2] = water @ 20 °C; cited from earlier work
# [3] = test system: Feline herpesvirus type I (FHV-1); details: cats maintained on oral L-lysine; cited from earlier work
structure (smiles),measurement,setting,value
NCCCC[C@H](N)C(=O)O [L-lysine],maximum amount capable of being dissolved in water (approximate concentration),[1],approximately 650 mg/ml
same,maximum amount capable of being dissolved in water,[2],64.2 gm/100 ml
same,severity and duration of infection if signs of the virus reoccur,[3],milder and of a shorter duration
same,time between ocular viral flare-ups,[3],longer period of time between ocular viral flare-ups
